Consider 26 compounds from patent US11472791B2 (Incyte Corporation, priority 2019, dated 2022).

In the experiment the target is CDK2/Cyclin E1 (Homo sapiens (Human), UniProt P24941). Kind of experiment: CDK2/Cyclin E1 HTRF enzyme activity assay. Conditions: 1 mM ATP. It counts as biochemical. How it is done:
Assays are conducted in white 384-well polystyrene plates in a final reaction volume of 8 μL. […] HTRF signals are read after 1 hour at room temperature on a PHERAstar FS plate reader (BMG Labtech). Data is analyzed with IDBS XLFit and GraphPad Prism 5.0 software using a three or four parameter dose response curve to determine IC50 for each compound.
On to `CC(C)(O)Cn1cc(-c2nc(NC3CCN(S(=O)(=O)CCCCN4CCCC4)CC3)ncc2C(F)(F)F)cn1` [Example 80, 2-Methyl-1-(4-(2-((1-((4-(pyrrolidin-1-yl)butyl)sulfonyl)piperidin-4-yl)amino)-5-(trifluoromethyl)pyrimidin-4-yl)-1H-pyrazol-1-yl)propan-2-ol], for which the IC50 (commonly the concentration needed to halve the response being measured) is below 0.05 µM. `[2H]C([2H])([2H])NCc1ccc(-n2cc(-c3nc(NC4CCN(S(=O)(=O)c5ccn(C)n5)CC4)ncc3Cl)cn2)c(C)c1` [Example 137, 5-Chloro-N-(1-((1-methyl-1H-pyrazol-3-yl)sulfonyl)piperidin-4-yl)-4-(1-(2-methyl-4-(((methyl-d3)amino)methyl)phenyl)-1H-pyrazol-4-yl)pyrimidin-2-amine] displayed an IC50 below 0.05 µM.

Compound `CC(C)(C(N)=O)n1cc(-c2nc(NC3CCN(S(=O)(=O)C4CC4)CC3)ncc2C(F)(F)F)cn1` [Example 98, 2-(4-(2-((1-(Cyclopropylsulfonyl)piperidin-4-yl)amino)-5-(trifluoromethyl)pyrimidin-4-yl)-1H-pyrazol-1-yl)-2-methylpropanamide] came in with a half-inhibitory concentration (IC50) below 0.05 µM.

Regarding `CS(=O)(=O)N1CCC(Nc2ncc(C#N)c(-c3cnn(-c4ccc(CN[C@H]5C[C@@H](C#N)C5)cc4Cl)c3)n2)CC1` [Example 164, 4-(1-(2-Chloro-4-((((1s,3s)-3-cyanocyclobutyl)amino)methyl)phenyl)-1H-pyrazol-4-yl)-2-((1-(methylsulfonyl)piperidin-4-yl)amino)pyrimidine-5-carbonitrile], the IC50 is below 0.05 µM.

Turning to `CNCc1ccc(-n2cc(-c3nc(NC4CCN(S(=O)(=O)c5cn(C)cn5)CC4)ncc3C#N)cn2)c(C)n1` [Example 126, 2-((1-((1-Methyl-1H-imidazol-4-yl)sulfonyl)piperidin-4-yl)amino)-4-(1-(2-methyl-6-((methylamino)methyl)pyridin-3-yl)-1H-pyrazol-4-yl)pyrimidine-5-carbonitrile], the IC50 is below 0.05 µM. `Cc1nc(CN[C@]2(C)C[C@H](O)C2)ccc1-n1cc(-c2nc(NC3CCN(S(C)(=O)=O)CC3)ncc2C#N)cn1` [Example 265]: the IC50 is below 0.05 µM. Then `CCNCc1ccc(-n2cc(-c3nc(NC4CCN(S(=O)(=O)CC)CC4)ncc3C#N)cn2)c(C)n1` [Example 125, 4-(1-(6-((Ethylamino)methyl)-2-methylpyridin-3-yl)-1H-pyrazol-4-yl)-2-((1-(ethylsulfonyl)piperidin-4-yl)amino)pyrimidine-5-carbonitrile], with below 0.05 µM; and `CCS(=O)(=O)N1CCC(Nc2ncc(C#N)c(-c3cnn(-c4ccc(CN5CCN(C)CC5)cc4Cl)c3)n2)CC1` [Example 239, 4-(1-(2-chloro-4-((4-methylpiperazin-1-yl)methyl)phenyl)-1H-pyrazol-4-yl)-2-((1-(ethylsulfonyl)piperidin-4-yl)amino)pyrimidine-5-carbonitrile], with below 0.05 µM. `CC(C)(O)Cn1cc(-c2nc(N[C@H]3CCN(S(C)(=O)=O)C[C@H]3F)ncc2C(F)(F)F)cn1` [Example 58, 1-(4-(2-(((3R,4S)-3-Fluoro-1-(methylsulfonyl)piperidin-4-yl)amino)-5-(trifluoromethyl)pyrimidin-4-yl)-1H-pyrazol-1-yl)-2-methylpropan-2-ol] displayed an IC50 below 0.05 µM. `Cn1cnc(S(=O)(=O)N2CCC(Nc3ncc(C(F)(F)F)c(-c4cnn(CC5CC5)c4)n3)CC2)c1` [Example 32, 4-(1-(Cyclopropylmethyl)-1H-pyrazol-4-yl)-N-(1-((1-methyl-1H-imidazol-4-yl)sulfonyl)piperidin-4-yl)-5-(trifluoromethyl)pyrimidin-2-amine] came in with an IC50 below 0.05 µM. The compound `C[C@@H]1CN(S(=O)(=O)c2cnn(C)c2)CC[C@@H]1Nc1ncc(C(F)(F)F)c(-c2cnn(CC(C)(C)O)c2)n1` [Example 60, 2-Methyl-1-(4-(2-(((3R,4S)-3-methyl-1-((1-methyl-1H-pyrazol-4-yl)sulfonyl)piperidin-4-yl)amino)-5-(trifluoromethyl)pyrimidin-4-yl)-1H-pyrazol-1-yl)propan-2-ol] displayed an IC50 below 0.05 µM. With `CCS(=O)(=O)N1CCC(Nc2ncc(C#N)c(-c3cnn(-c4ccc(CN[C@@H]5CCCC[C@@]5(C)O)cc4Cl)c3)n2)CC1` (racemic) [Example 287, (±)-4-(1-(2-Chloro-4-((((1r,2r)-2-hydroxy-2-methylcyclohexyl)amino)methyl)phenyl)-1H-pyrazol-4-yl)-2-((1-(ethylsulfonyl)piperidin-4-yl)amino)pyrimidine-5-carbonitrile], the IC50 was below 0.05 µM. `CCS(=O)(=O)N1CC[C@H](Nc2ncc(C#N)c(-c3cnn(-c4ccc(CNC)cc4Cl)c3)n2)[C@H](F)C1` [Example 117, 4-(1-(2-Chloro-4-((methylamino)methyl)phenyl)-1H-pyrazol-4-yl)-2-(((3R,4S)-1-(ethylsulfonyl)-3-fluoropiperidin-4-yl)amino)pyrimidine-5-carbonitrile] had a concentration for half-maximal inhibition (IC50) below 0.05 µM. As for `CS(=O)(=O)N1CC(Nc2ncc(C(F)(F)F)c(-c3cnn(C4CCOCC4)c3)n2)C1` [Example 20, N-(1-(Methylsulfonyl)azetidin-3-yl)-4-(1-(tetrahydro-2H-pyran-4-yl)-1H-pyrazol-4-yl)-5-(trifluoromethyl)pyrimidin-2-amine], the half-inhibitory concentration (IC50) is 0.5 to 1 µM. Turning to `CC(C)(O)Cn1cc(-c2nc(NC3CCN(S(=O)(=O)CCCNC4CC4)CC3)ncc2C(F)(F)F)cn1` [Example 226, 1-(4-(2-((1-((3-(Cyclopropylamino)propyl)sulfonyl)piperidin-4-yl)amino)-5-(trifluoromethyl)pyrimidin-4-yl)-1H-pyrazol-1-yl)-2-methylpropan-2-ol], the IC50 was below 0.05 µM. `CN(C)C1CCCCC1NCc1ccc(-n2cc(-c3nc(NC4CCN(S(C)(=O)=O)CC4)ncc3C#N)cn2)c(Cl)c1` (centres unmarked) [Example 184, 4-(1-(2-Chloro-4-(((2-(dimethylamino)cyclohexyl)amino)methyl)phenyl)-1H-pyrazol-4-yl)-2-((1-(methylsulfonyl)piperidin-4-yl)amino)pyrimidine-5-carbonitrile] yielded an IC50 below 0.05 µM.

As for `CC(C)S(=O)(=O)N1CCC(Nc2ncc(C(F)(F)F)c(-c3cnn([C@H]4C[C@@](C)(N)C4)c3)n2)CC1` [Example 45, 4-(1-((1s,3s)-3-Amino-3-methylcyclobutyl)-1H-pyrazol-4-yl)-N-(1-(isopropylsulfonyl)piperidin-4-yl)-5-(trifluoromethyl)pyrimidin-2-amine], the IC50 is below 0.05 µM. Compound `Cn1cnc(S(=O)(=O)N2CCC(Nc3ncc(Cl)c(-c4cnn(CC(F)(F)F)c4)n3)CC2)c1` [Example 40, 5-Chloro-N-(1-((1-methyl-1H-imidazol-4-yl)sulfonyl)piperidin-4-yl)-4-(1-(2,2,2-trifluoroethyl)-1H-pyrazol-4-yl)pyrimidin-2-amine] had an IC50 below 0.05 µM. `CC(C)(O)Cn1cc(-c2nc(NC3CCN(S(=O)(=O)c4ccccn4)CC3)ncc2C#N)cn1` [Example 55, 4-(1-(2-Hydroxy-2-methylpropyl)-1H-pyrazol-4-yl)-2-((1-(pyridin-2-ylsulfonyl)piperidin-4-yl)amino)pyrimidine-5-carbonitrile] displayed an IC50 below 0.05 µM.

Regarding `[2H]C([2H])([2H])NCc1ccc(-n2cc(-c3nc(N[C@H]4CCN(S(=O)(=O)C5CC5)C[C@H]4F)ncc3C(F)(F)F)cn2)c(C)c1` [Example 133, N-((3R,4S)-1-(Cyclopropylsulfonyl)-3-fluoropiperidin-4-yl)-4-(1-(2-methyl-4-(((methyl-d3)amino)methyl)phenyl)-1H-pyrazol-4-yl)-5-(trifluoromethyl)pyrimidin-2-amine], the concentration for half-maximal inhibition (IC50) is below 0.05 µM. In the case of `CS(=O)(=O)N1CCC(Nc2ncc(C#N)c(-c3cnn(-c4ccc(CN[C@@H]5CCCC[C@@H]5O)cc4Cl)c3)n2)CC1` [Example 179, 4-(1-(2-Chloro-4-((((1R,2S)-2-hydroxycyclohexyl)amino)methyl)phenyl)-1H-pyrazol-4-yl)-2((1-(methylsulfonyl)piperidin-4-yl)amino)pyrimidine-5-carbonitrile], the IC50 is below 0.05 µM.

With `COC(=O)N1CCC[C@@H](NCc2ccc(-n3cc(-c4nc(NC5CCN(S(C)(=O)=O)CC5)ncc4C#N)cn3)c(Cl)c2)C1` [Example 168, Methyl (R)-3-((3-chloro-4-(4-(5-cyano-2-((1-(methylsulfonyl)piperidin-4-yl)amino)pyrimidin-4-yl)-1H-pyrazol-1-yl)benzyl)amino)piperidine-1-carboxylate], the IC50 is below 0.05 µM. Take `CC(C)(O)Cn1cc(-c2nc(N[C@H]3CCN(S(=O)(=O)CCCN4CCCC4)C[C@H]3F)ncc2C(F)(F)F)cn1` [Example 203, 1-(4-(2-(((3R,4S)-3-Fluoro-1-((3-(pyrrolidin-1-yl)propyl)sulfonyl)piperidin-4-yl)amino)-5-(trifluoromethyl)pyrimidin-4-yl)-1H-pyrazol-1-yl)-2-methylpropan-2-ol]: the IC50 was below 0.05 µM. Then `CCS(=O)(=O)N1CCC(Nc2ncc(C#N)c(-c3cnn(-c4ccc(CNc5cnn(C)c5)cc4Cl)c3)n2)CC1` [Example 165, 4-(1-(2-Chloro-4-(((1-methyl-1H-pyrazol-4-yl)amino)methyl)phenyl)-1H-pyrazol-4-yl)-2-((1-(ethylsulfonyl)piperidin-4-yl)amino)pyrimidine-5-carbonitrile], with below 0.05 µM.

`CN1CCN(Cc2ccc(-n3cc(-c4nc(NC5CCN(S(=O)(=O)C6CC6)CC5)ncc4C#N)cn3)c(Cl)c2)CC1` [Example 259, 4-(1-(2-Chloro-4-((4-methylpiperazin-1-yl)methyl)phenyl)-1H-pyrazol-4-yl)-2-((1-(cyclopropylsulfonyl)piperidin-4-yl)amino)pyrimidine-5-carbonitrile] returned an IC50 below 0.05 µM. `[2H]C([2H])([2H])NCc1ccc(-n2cc(-c3nc(N[C@H]4CCN(S(=O)(=O)CC)C[C@H]4F)ncc3C#N)cn2)c(Cl)c1` [Example 144, 4-(1-(2-Chloro-4-(((methyl-d3)amino)methyl)phenyl)-1H-pyrazol-4-yl)-2-(((3R,4S)-1-(ethylsulfonyl)-3-fluoropiperidin-4-yl)amino)pyrimidine-5-carbonitrile] registered an IC50 below 0.05 µM.
